In the first experiment the test system is Fibroblasts (primary human lung and dermal, HFL-1, 3T3 etc). The experiment in a line: Cell proliferation assay: inhibitory effect on cell proliferation (BrdU incorporation) in fibroblasts. In kind it is cell-based. As to conditions: HFL1, 50% inhibition of stimulant (LPA, TGFb, serum etc) induced increase of BrdU incorporation in fibroblasts. The protocol: Assay of Inhibitory Effect on Cell Proliferation (BrdU Incorporation)
Fibroblasts (primary human lung and dermal, HFL-1, 3T3 etc) were plated on a 96-well plate and serum starved for 24-48 hours. The media were then exchanged for media containing stimulants (LPA, TGFb, serum etc) and cultured further for 16-24 hours before BrdU addition. After culturing for another 8 hours, cells were washed with PBS and the amount of BrdU incorporated into the cells was assayed by absorbance at 450 nm using the Cell proliferation ELISA system (RPN250, Amersham LIFE SCIENCE). The difference between the amount of BrdU incorporated in the stimulant-added well and the amount of BrdU incorporated in the well containing no stimulant represented the amount of BrdU incorporation accelerated by stimulant. The increase of BrdU incorporation without the addition of test compounds was set as 100% and the concentration of compound with 50% inhibition in the increase of BrdU incorporation (IC50 value) was determined. The test compounds were added 0-30 min before stimulant addition.
Compounds of some embodiments were prepared according to synthetic methods described herein and assay data obtained for IC50 for BrdU inhibition. The assay data obtained is presented in Table 3, in which A=less than 50 μM, B=greater than or equal to 50 μM and less than or equal to 200 μM; and C=greater than 200 μM.
A general note: Incorporation of labelled thymidine or its analogues reports DNA synthesis.
Turning to `O=c1c2c(ncn2C2CC2)c(-c2cn[nH]c2)cn1-c1ccc(OC(F)(F)F)cc1` [Compound 650], the IC50 is below 50 µM. As for `COCCOCCOCCOc1ccc(-n2cc(C)ccc2=O)cc1` [Compound 21], the IC50 is above 200 µM.

The next experiment deals with endothelin-1 (ET-1) production. The experiment in a line: ET-1 assay: inhibitory effect on TGF-b induced endothelin-1 production in fibroblasts (ELISA). In kind it is cell-based, human. To be noted: Homo sapiens, Fibroblast, inhibition of stimulant (TGFb, serum, LPA etc) induced ET-1 production in fibroblasts. The protocol: Assay of Inhibitory Effect on TGF-b Induced Endothelin-1 Production
Fibroblasts (primary human lung and dermal, HFL-1, 3T3 etc) are seeded in 96-well plates at ˜15000 cells/well and serum starved for 0-48 hours. After media exchange, compounds serially diluted in DMSO are added to the cells. After a brief incubation of ˜30 min, stimulants (TGFb, serum, LPA etc) are added followed by further incubation for 16-48 hours. Media is then harvested and stored frozen in plate format for later endothelin-1 (ET-1) determination by ELISA. Toxicity measurements are made using the ATPlite kit (Perkin-Elmer). ET-1 is quantified using an ELISA kit (R&D Systems). The amount of ET-1 produced in the assay wells are back-calculated using the ELISA standard. The ability of a compound to inhibit ET-1 production is typically analyzed by fitting dose-response curves to a 4-parameter logistic function to obtain an EC50 value. A measure of cytotoxicity (CC50) is likewise reported from the same experiment using the ATPlite data.
Compounds of some embodiments were prepared according to synthetic methods described herein and assay data obtained for EC50 against ET-1. The assay data obtained is presented in Table 2, in which A=less than 50 μM, B=greater than or equal to 50 μM and less than or equal to 200 μM; and C=greater than 200 μM.
As to `CCOC(=O)Nc1cc(=O)n(-c2ccc(OC(F)(F)F)cc2)cc1-c1ccc(F)cc1` [Compound 114], the concentration giving a half-maximal response (EC50) is above 200 µM.

`COCCOCCOCCOc1cccc(-n2cc(C)ccc2=O)c1` [Compound 22] yielded a half-maximal effective concentration (EC50) above 200 µM. In the case of `CCCCOC(=O)Nc1cc(=O)n(-c2ccc(OC(F)(F)F)cc2)cc1-c1cnn(C)c1` [Compound 136], the half-maximal effective concentration (EC50) was 50 to 200 µM. In turn, `CC(=O)c1ccc(=O)n(-c2ccc(OC(C)C)cc2)c1` [Compound 10] returned a concentration for a half-maximal effect (EC50) above 200 µM.

The molecule `Cc1cc(=O)n(-c2ccc(C(F)(F)F)cc2)cc1-c1ccccc1` [Compound 170] had an EC50 below 50 µM. Turning to `O=c1c2c(ncn2C2CC2)c(-c2cn[nH]c2)cn1-c1ccc(OC(F)(F)F)cc1` [Compound 650], the EC50 was below 50 µM.

On to `COCCOCCOCCOc1ccc(-n2cc(C)ccc2=O)cc1` [Compound 21], for which the concentration for a half-maximal effect (EC50) was above 200 µM. Molecule `CN1C(=O)COc2c(-c3cnn(C)c3)cn(-c3ccc(OC(F)(F)F)cc3)c(=O)c21` [Compound 396] showed an EC50 above 200 µM. The same measure, in the same setting: with `COCCOc1ccc(Oc2cc(=O)n(-c3ccc(OC(F)(F)F)cc3)cc2-c2cnn(C)c2)cc1` [Compound 533] the figure was 50 to 200 µM. Molecule `Cn1cc(-c2cn(-c3ccc(OC(F)(F)F)cc3)c(=O)cc2NC(=O)OCc2ccccc2)cn1` [Compound 140] gave an EC50 of 50 to 200 µM.

The experiment is the same for the next values; noted with them: inhibition of stimulant (TGFb, serum, LPA etc) induced ET-1 production in fibroblasts.
On to `CC(C)Oc1ccc(-n2cc(-c3ccc(F)cc3)ccc2=O)cc1` [Compound 288], for which the 50% effective concentration (EC50) was 50 to 200 µM.

As a reminder, the IC50 is the concentration at which inhibition is half-maximal. A low value points to higher potency. For orientation: EC50 means the concentration that produces a half-maximal response.
